This is an account of results in US11667651B2, “Aminopyridine derivatives as phosphatidylinositol phosphate kinase inhibitors” (HiberCell, Inc., priority 2017, dated 2023).

Where only a bound is given, the exact number is not on record here.

Holding throughout (assay type): biochemical
Test [1] deals with T1, PIP4K2A (Homo sapiens, UniProt P48426).
T1 sequence (P48426 1-406): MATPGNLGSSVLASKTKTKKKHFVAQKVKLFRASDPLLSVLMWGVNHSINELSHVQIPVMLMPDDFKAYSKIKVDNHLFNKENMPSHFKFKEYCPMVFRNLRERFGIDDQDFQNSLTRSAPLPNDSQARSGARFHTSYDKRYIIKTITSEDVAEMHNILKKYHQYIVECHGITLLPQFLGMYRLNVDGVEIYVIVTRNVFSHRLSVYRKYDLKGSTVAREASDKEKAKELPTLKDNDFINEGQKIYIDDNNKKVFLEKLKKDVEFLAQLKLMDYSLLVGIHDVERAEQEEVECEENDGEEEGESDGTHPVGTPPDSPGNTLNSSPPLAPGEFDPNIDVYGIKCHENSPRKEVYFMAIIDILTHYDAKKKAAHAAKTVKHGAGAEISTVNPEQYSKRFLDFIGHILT
Kind of test: Kinase Assay PIP4K2 A (Table 2). Also noted: 4 nM PIP4K2A (full length protein, SignalChem); purchased SignalChem. The settings on record: compounds listed under IC50 bins. A digest of the protocol: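 ADP-Glo luminescent read-out after 1 h room-temperature kinase reaction, started with 60 μM ATP solution following 15 min compound pre-incubation. Enzyme/substrate mix: 4 nM full-length PIP4K2A plus 100 μM PI(5)P diC8; buffer MOPS pH 7.2 with 25 mM MgCl2 and Tween 20. IC50 from 10-point, 3-fold titrations normalized to DMSO.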

Test [2] addresses T1, PIP4K2A. Kind of test: ADP-glo kinase assay PIP4K 2A (Table 3). Details: made in house; host or cells: E. coli. Conditions: compounds listed under IC50 bins. In short, it runs like this: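 ADP-Glo luminescence detected ADP after 1 h RT reaction started by ATP (60 μM solution) on full-length PIP4K2A (4 nM in mix) and PI(5)P diC8 (100 μM in mix), preceded by 15 min enzyme-compound preincubation in MOPS pH 7.2/25 mM MgCl2. Percent inhibition versus DMSO over 10 concentrations fitted for IC50.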
In general terms: ADP-Glo first removes unused ATP, then detects ADP through luciferase.

A further test addresses T2, PIP4K2B (Homo sapiens, UniProt P78356).
T2 construct: made in house; host or cells: E. coli
T2 sequence (P78356 1-416): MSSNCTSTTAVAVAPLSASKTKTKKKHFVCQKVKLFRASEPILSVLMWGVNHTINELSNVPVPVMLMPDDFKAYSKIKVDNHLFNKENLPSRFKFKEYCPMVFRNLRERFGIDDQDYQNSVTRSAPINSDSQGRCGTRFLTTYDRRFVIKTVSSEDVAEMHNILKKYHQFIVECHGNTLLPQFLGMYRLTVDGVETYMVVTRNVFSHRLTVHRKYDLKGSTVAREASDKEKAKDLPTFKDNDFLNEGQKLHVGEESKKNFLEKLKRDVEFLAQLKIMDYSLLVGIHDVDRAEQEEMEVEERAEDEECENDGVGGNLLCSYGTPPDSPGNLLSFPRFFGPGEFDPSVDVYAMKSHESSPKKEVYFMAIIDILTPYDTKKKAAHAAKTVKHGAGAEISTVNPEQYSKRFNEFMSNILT
Kind of test: Trans-FI P kinase assay PIP4K2B (Table 4). The settings on record: compounds listed under IC50 bins; read-out: Trans-FI P kinase assays: PIP4K2B IC50. In short, it runs like this:
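Transcreener FI detection (Ex 584/Em 623) of GDP, converted via calibration curve, gives IC50 from residual activity versus log concentration (highest 4.8 μM). Reaction: 80 μM PI5P plus DOPE carrier, 100 μM GTP, 5 nM GST-tagged enzyme, pH 7.3 HEPES with MgCl2 and 5% DMSO, 2 h after 1 h enzyme-compound preincubation at 27° C.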

What is called IC50 is the point on the concentration scale where inhibition reaches its midpoint. As to `CN(C)C(=O)c1ccc(-c2ccc(Nc3cncc(NC(=O)c4ccnc(N)c4)c3)nc2)cc1` [Example 131, 2-amino-N-(5-((5-(4-(dimethylcarbamoyl)phenyl)pyridin-2-yl)amino)pyridin-3-yl)isonicotinamide], the IC50 is 1 to 10 nM on PIP4K2A [1], 10 to 100 nM on PIP4K2A [2] and 10 to 100 nM at PIP4K2B.

As for `CN(C)C(=O)c1ccc(-c2ccc(Nc3cncc(NC(=O)c4ccc5c(c4)COB5O)c3)nc2)cc1` [Example 132, N-(5-((5-(4-(dimethylcarbamoyl)phenyl)pyridin-2-yl)amino)pyridin-3-yl)-1-hydroxy-1,3-dihydrobenzo[c][1,2]oxaborole-5-carboxamide], the results for the IC50 on PIP4K2A [1], at PIP4K2A [2] and on PIP4K2B were 1 to 10 nM, 10 to 100 nM and 10 to 100 nM, respectively.

Turning to `CN(C)C(=O)c1ccc(-c2ccc(Nc3cncc(NC(=O)c4ccc5c(c4)B(O)OC5)c3)nc2)cc1` [Example 133, N-(5-((5-(4-(dimethylcarbamoyl)phenyl)pyridin-2-yl)amino)pyridin-3-yl)-1-hydroxy-1,3-dihydrobenzo[c][1,2]oxaborole-6-carboxamide], the IC50 against PIP4K2A [1], at PIP4K2A [2] and at PIP4K2B was 10 to 100 nM throughout.

Consider `CN(C)C(=O)c1ccc(-c2ccc(Nc3cncc(N4CCC(Cc5cccc(N)c5)C4=O)c3)nc2)cc1` (stereo not drawn) [Example 134, 4-(6-((5-(3-(3-aminobenzyl)-2-oxopyrrolidin-1-yl)pyridin-3-yl)amino)pyridin-3-yl)-N,N-dimethylbenzamide], for which the IC50 at PIP4K2A [1], on PIP4K2A [2] and at PIP4K2B was 10 to 100 nM each time.

For the compound `CN(C)C(=O)c1ccc(-c2ccc(Nc3cncc(NC(=O)c4ccc5cc[nH]c5c4)c3)nc2)cc1` [Example 135, N-(5-((5-(4-(dimethylcarbamoyl)phenyl)pyridin-2-yl)amino)pyridin-3-yl)-1H-indole-6-carboxamide], the 50% inhibitory concentration (IC50) against PIP4K2A [1], on PIP4K2A [2] and on PIP4K2B was 10 to 100 nM each time.

As to `CN(C)C(=O)c1ccc(-c2ccc(Nc3cncc(NC(=O)c4ccc5ncoc5c4)c3)nc2)cc1` [Example 136, N-(5-((5-(4-(dimethylcarbamoyl)phenyl)pyridin-2-yl)amino)pyridin-3-yl)benzo[d]oxazole-6-carboxamide], the IC50 against PIP4K2A [1], at PIP4K2A [2] and at PIP4K2B was 10 to 100 nM each time.

Turning to `CN(C)C(=O)c1ccc(-c2ccc(Nc3cncc(NC(=O)CCc4ccccc4)c3)nc2)cc1` [Example 137, N,N-dimethyl-4-(6-((5-(3-phenylpropanamido)pyridin-3-yl)amino)pyridin-3-yl)benzamide], the concentration for half-maximal inhibition (IC50) at PIP4K2A [1], against PIP4K2A [2] and at PIP4K2B was 10 to 100 nM in each case.

As for `CN(C)C(=O)c1ccc(-c2ccc(Nc3cncc(NC(=O)C4CC4c4ccccc4)c3)nc2)cc1` (stereo not drawn) [Example 138, N,N-dimethyl-4-(6-((5-(2-phenylcyclopropane-1-carboxamido)pyridin-3-yl)amino)pyridin-3-yl)benzamide], the IC50 on PIP4K2A [1] was in the range of 1 to 10 nM; against PIP4K2A [2] it was 1 to 10 nM; at PIP4K2B, 10 to 100 nM.

In the case of `CN(C)C(=O)c1ccc(-c2ccc(Nc3cncc(NC(=O)c4ccc(F)cc4)c3)nc2)cc1` [Example 139, 4-(6-((5-(4-fluorobenzamido)pyridin-3-yl)amino)pyridin-3-yl)-N,N-dimethylbenzamide], the IC50 against PIP4K2A [1], at PIP4K2A [2] and at PIP4K2B was 10 to 100 nM in each case.

As to `CN(C)C(=O)c1ccc(-c2ccc(Nc3cncc(NC(=O)c4cccc(F)c4)c3)nc2)cc1` [Example 140, 4-(6-((5-(3-fluorobenzamido)pyridin-3-yl)amino)pyridin-3-yl)-N,N-dimethylbenzamide], the IC50 on PIP4K2A [1], against PIP4K2A [2] and at PIP4K2B was 10 to 100 nM throughout.

Turning to `COc1cccc(C(=O)Nc2cncc(Nc3ccc(-c4ccc(C(=O)N(C)C)cc4)cn3)c2)c1` [Example 141, 4-(6-((5-(3-methoxybenzamido)pyridin-3-yl)amino)pyridin-3-yl)-N,N-dimethylbenzamide], the IC50 was 1 to 10 nM at PIP4K2A [1], 10 to 100 nM on PIP4K2A [2] and 10 to 100 nM on PIP4K2B.

For the compound `COc1ccc(C(=O)Nc2cncc(Nc3ccc(-c4ccc(C(=O)N(C)C)cc4)cn3)c2)cc1` [Example 142, 4-(6-((5-(4-methoxybenzamido)pyridin-3-yl)amino)pyridin-3-yl)-N,N-dimethylbenzamide], the IC50 against PIP4K2A [1], against PIP4K2A [2] and at PIP4K2B was 10 to 100 nM each time.

`CN(C)C(=O)c1ccc(-c2ccc(Nc3cncc(NC(=O)c4cccc5[nH]ccc45)c3)nc2)cc1` [Example 143, N-(5-((5-(4-(dimethylcarbamoyl)phenyl)pyridin-2-yl)amino)pyridin-3-yl)-1H-indole-4-carboxamide]: the IC50 lay within 1 to 10 nM against PIP4K2A [1], 10 to 100 nM on PIP4K2A [2] and 10 to 100 nM on PIP4K2B.

For the compound `CNC(=O)c1cccc2ncc(Nc3ccc(-c4ccc(N5CCCC5=O)cc4)cn3)cc12` [Example 146, N-methyl-3-((5-(4-(2-oxopyrrolidin-1-yl)phenyl)pyridin-2-yl)amino)quinoline-5-carboxamide], the figures for the IC50 against PIP4K2A [1], against PIP4K2A [2] and at PIP4K2B were 100 to 1000 nM, 10 to 100 nM and 10 to 100 nM, respectively.

As for `CN(C)C(=O)c1cccc2ncc(Nc3ccc(-c4ccc(N5CCCC5=O)cc4)cn3)cc12` [Example 147, N,N-dimethyl-3-((5-(4-(2-oxopyrrolidin-1-yl)phenyl)pyridin-2-yl)amino)quinoline-5-carboxamide], the results for the IC50 at PIP4K2A [1], against PIP4K2A [2] and on PIP4K2B were 100 to 1000 nM, 100 to 1000 nM and more than 1000 nM, respectively.

As to `O=C(c1cccc2ncc(Nc3ccc(-c4ccc(N5CCCC5=O)cc4)cn3)cc12)N1CCCC1` [Example 148, 1-(4-(6-((5-(pyrrolidine-1-carbonyl)quinolin-3-yl)amino)pyridin-3-yl)phenyl)pyrrolidin-2-one], the IC50 against PIP4K2A [1] is 100 to 1000 nM; at PIP4K2A [2] it was more than 1000 nM; at PIP4K2B it was more than 1000 nM.

For the compound `O=C(c1cccc2ncc(Nc3ccc(-c4ccc(N5CCCC5=O)cc4)cn3)cc12)N1CCC(O)C1` (stereo not drawn) [Example 149, 1-(4-(6-((5-(3-hydroxypyrrolidine-1-carbonyl)quinolin-3-yl)amino)pyridin-3-yl)phenyl)pyrrolidin-2-one], the values for the IC50 on PIP4K2A [1], at PIP4K2A [2] and on PIP4K2B were 100 to 1000 nM, more than 1000 nM and more than 1000 nM, respectively.

As to `O=C1CCCN1c1ccc(-c2ccc(Nc3cnc4c(c3)N(C(=O)C3CC3)CCO4)nc2)cc1` [Example 150, 1-(4-(6-((1-(cyclopropanecarbonyl)-2,3-dihydro-1H-pyrido[2,3-b][1,4]oxazin-7-yl)amino)pyridin-3-yl)phenyl)pyrrolidin-2-one], the IC50 on PIP4K2A [1] is 1 to 10 nM; at PIP4K2A [2], 1 to 10 nM; at PIP4K2B, 10 to 100 nM.

Take `COC(=O)N1CCOc2ncc(Nc3ccc(-c4ccc(N5CCCC5=O)cc4)cn3)cc21` [Example 151, methyl 7-((5-(4-(2-oxopyrrolidin-1-yl)phenyl)pyridin-2-yl)amino)-2,3-dihydro-1H-pyrido[2,3-b][1,4]oxazine-1-carboxylate]: the IC50 against PIP4K2A [1] lay in the range of 1 to 10 nM; against PIP4K2A [2], 1 to 10 nM; on PIP4K2B, 10 to 100 nM.

For the compound `CC(C)C(=O)N1CCOc2ncc(Nc3ccc(-c4ccc(N5CCCC5=O)cc4)cn3)cc21` [Example 152, 1-(4-(6-((1-isobutyryl-2,3-dihydro-1H-pyrido[2,3-b][1,4]oxazin-7-yl)amino)pyridin-3-yl)phenyl)pyrrolidin-2-one], the IC50 on PIP4K2A [1] fell in the range of 1 to 10 nM; on PIP4K2A [2] it was 10 to 100 nM; at PIP4K2B, 10 to 100 nM.
